The assay addresses T1, mTOR kinase (Homo sapiens, UniProt P42345).
T1 construct: FLAG; made in house
The assay is described as follows: In vitro mTOR kinase assay, Test (a)(i) (AlphaScreen). The note with it: recombinant FLAG-tagged mTOR (1362-2549), ATP 20 μM; read-out: Test (a)(i) IC50. Format: biochemical. As for the experimental part: (a)(i) In Vitro mTOR Kinase Assay
A C-terminal truncation of mTOR encompassing amino acid residues 1362 to 2549 of mTOR (EMBL Accession No. L34075) was stably expressed as a FLAG-tagged fusion in HEK293 cells as described by Vilella-Bach et al., […], 1999, 274, 4266-4272. The HEK293 FLAG-tagged mTOR (1362-2549) stable cell line was routinely maintained at 37° C. with 5% CO2 up to a confluency of 70-90% in Dulbecco's modified Eagle's growth medium (DMEM; Invitrogen Limited, Paisley, UK Catalogue No. 41966-029) containing 10% heat-inactivated foetal calf serum (FCS; Sigma, Poole, Dorset, UK, Catalogue No. F0392), 1% L-glutamine (Gibco, Catalogue No. 25030-024) and 2 mg/ml Geneticin (G418 sulfate; Invitrogen Limited, UK Catalogue No. 10131-027). Following expression in the mammalian HEK293 cell line, expressed protein was purified using the FLAG epitope tag using standard purification techniques.
A 30 μl mixture of recombinant purified mTOR enzyme, 1 μM biotinylated peptide substrate (Biotin-Ahx-[…]NH2; Bachem UK Ltd), ATP (20 μM) and a buffer solution [comprising Tris-HCl pH7.4 buffer (50 mM), EGTA (0.1 mM), bovine serum albumin (0.5 mg/mL), DTT (1.25 mM) and manganese chloride (10 mM)] was agitated at room temperature for 90 minutes.
These assay solutions were incubated for 2 hours at room temperature.
Phosphorylated biotinylated peptide is formed in situ as a result of mTOR mediated phosphorylation. The phosphorylated biotinylated peptide that is associated with AlphaScreen Streptavidin donor beads forms a complex with the p70 S6 Kinase (T389) 1A5 Monoclonal Antibody that is associated with Alphascreen Protein A acceptor beads. […] Accordingly, the presence of mTOR kinase activity results in an assay signal. In the presence of an mTOR kinase inhibitor, signal strength is reduced.
A general note: In Alpha technology, singlet oxygen from a donor bead excites a nearby acceptor bead.

T1 sequence (P42345 1362-2549): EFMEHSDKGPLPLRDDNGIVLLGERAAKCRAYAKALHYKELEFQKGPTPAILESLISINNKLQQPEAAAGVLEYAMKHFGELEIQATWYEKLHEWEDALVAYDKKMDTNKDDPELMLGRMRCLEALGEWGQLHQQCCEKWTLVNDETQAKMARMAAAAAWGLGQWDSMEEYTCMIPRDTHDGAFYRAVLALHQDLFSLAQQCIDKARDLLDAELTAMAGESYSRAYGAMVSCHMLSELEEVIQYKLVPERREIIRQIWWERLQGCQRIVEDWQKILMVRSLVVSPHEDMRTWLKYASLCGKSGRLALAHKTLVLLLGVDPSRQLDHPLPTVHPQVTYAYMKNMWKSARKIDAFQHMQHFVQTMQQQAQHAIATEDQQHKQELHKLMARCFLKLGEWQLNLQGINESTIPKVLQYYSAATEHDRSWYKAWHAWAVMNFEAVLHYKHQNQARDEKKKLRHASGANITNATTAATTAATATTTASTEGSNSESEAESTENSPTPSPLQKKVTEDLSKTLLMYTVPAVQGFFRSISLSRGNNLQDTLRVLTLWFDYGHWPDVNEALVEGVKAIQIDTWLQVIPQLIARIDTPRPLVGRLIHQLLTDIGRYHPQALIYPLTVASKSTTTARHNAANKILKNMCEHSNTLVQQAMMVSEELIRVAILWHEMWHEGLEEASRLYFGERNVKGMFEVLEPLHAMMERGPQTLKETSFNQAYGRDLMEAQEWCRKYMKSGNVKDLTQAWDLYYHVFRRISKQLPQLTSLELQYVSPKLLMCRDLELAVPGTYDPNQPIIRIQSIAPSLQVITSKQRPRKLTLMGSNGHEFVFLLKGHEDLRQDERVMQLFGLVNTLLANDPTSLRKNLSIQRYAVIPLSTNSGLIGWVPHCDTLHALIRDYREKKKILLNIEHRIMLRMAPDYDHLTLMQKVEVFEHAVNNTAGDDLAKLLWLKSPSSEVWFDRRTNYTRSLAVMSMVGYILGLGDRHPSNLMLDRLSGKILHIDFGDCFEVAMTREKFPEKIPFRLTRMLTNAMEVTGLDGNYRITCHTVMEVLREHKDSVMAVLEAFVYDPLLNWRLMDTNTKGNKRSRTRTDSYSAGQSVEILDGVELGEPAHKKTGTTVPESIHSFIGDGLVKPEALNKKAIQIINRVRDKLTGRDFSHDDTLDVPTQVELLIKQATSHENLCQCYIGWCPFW

In the case of `CS(=O)(=O)Cc1cc(N2CCOCC2)nc(-c2ccc(NC(=O)C3(C(N)=O)CC3)cc2)n1` [Example 5ab, N′-[4-[4-(methylsulfonylmethyl)-6-morpholin-4-yl-pyrimidin-2-yl]phenyl]cyclopropane-1,1-dicarboxamide], the IC50 – broadly, the concentration that inhibits the measured activity by half – came out at 6590 nM.
With `CS(=O)(=O)Cc1cc(N2CCOCC2)nc(-c2ccc(NC(=O)CN3CCOCC3)cc2)n1` [Example 5am, N-[4-[4-(methylsulfonylmethyl)-6-morpholin-4-yl-pyrimidin-2-yl]phenyl]-2-morpholin-4-yl-acetamide], the IC50 was found to be 9100 nM.
For `CS(=O)(=O)CC(=O)Nc1ccc(-c2nc(CS(C)(=O)=O)cc(N3CCOCC3)n2)cc1` [Example 5e, 2-methylsulfonyl-N-[4-[4-(methylsulfonylmethyl)-6-morpholin-4-yl-pyrimidin-2-yl]phenyl]acetamide], the IC50 came out at 1770 nM.
Then `CCC(=O)Nc1ccc(-c2nc(CS(C)(=O)=O)cc(N3CCOCC3)n2)cc1` [Example 5a, N-[4-[4-(methylsulfonylmethyl)-6-morpholin-4-yl-pyrimidin-2-yl]phenyl]propanamide], with 648 nM; and `CS(=O)(=O)Cc1cc(N2CCOCC2)nc(-c2ccc(NC(=O)Cn3ccnc3)cc2)n1` [Example 5y, 2-imidazol-1-yl-N-[4-[4-(methylsulfonylmethyl)-6-morpholin-4-yl-pyrimidin-2-yl]phenyl]acetamide], with 2520 nM.
As for `CO[C@H](C)C(=O)Nc1ccc(-c2nc(CS(C)(=O)=O)cc(N3CCOCC3)n2)cc1` [Example 5ap, (2R)-2-methoxy-N-[4-[4-(methylsulfonylmethyl)-6-morpholin-4-yl-pyrimidin-2-yl]phenyl]propanamide], the figure is 32600 nM; as for `C[C@H]1COCCN1c1cc(CS(C)(=O)=O)nc(-c2cccc(NC(=O)c3ccno3)c2)n1` [Example 7a, N-[3-[4-[(3S)-3-methylmorpholin-4-yl]-6-(methylsulfonylmethyl)pyrimidin-2-yl]phenyl]-1,2-oxazole-5-carboxamide], 1980 nM.
As for `CS(=O)(=O)Cc1cc(N2CCOCC2)nc(-c2ccc(NC(=O)c3ccc(C#N)nc3)cc2)n1` [Example 5x, 6-cyano-N-[4-[4-(methylsulfonylmethyl)-6-morpholin-4-yl-pyrimidin-2-yl]phenyl]pyridine-3-carboxamide], the figure is 6200 nM; as for `CC(=O)NC(C)C(=O)Nc1ccc(-c2nc(CS(C)(=O)=O)cc(N3CCOCC3)n2)cc1` (stereo not drawn) [Example 5d, 2-acetamido-N-[4-[4-(methylsulfonylmethyl)-6-morpholin-4-yl-pyrimidin-2-yl]phenyl]propanamide], 7170 nM; as for `CCOCCC(=O)Nc1ccc(-c2nc(CS(C)(=O)=O)cc(N3CCOCC3)n2)cc1` [Example 5l, 3-ethoxy-N-[4-[4-(methylsulfonylmethyl)-6-morpholin-4-yl-pyrimidin-2-yl]phenyl]propanamide], 2000 nM.
As to `CS(=O)(=O)Cc1cc(N2CCOCC2)nc(-c2ccc(NC(=O)c3cncs3)cc2)n1` [Example 5ao, N-[4-[4-(methylsulfonylmethyl)-6-morpholin-4-yl-pyrimidin-2-yl]phenyl]-1,3-thiazole-5-carboxamide], the IC50 came to 552 nM.
As to `CS(=O)(=O)Cc1cc(N2CCOCC2)nc(-c2ccc(NC(=O)c3cccnc3)cc2)n1` [Example 5r, N-[4-[4-(methylsulfonylmethyl)-6-morpholin-4-yl-pyrimidin-2-yl]phenyl]pyridine-3-carboxamide], the concentration for half-maximal inhibition (IC50) was determined as 2760 nM.
Regarding `CS(=O)(=O)Cc1cc(N2CCOCC2)nc(-c2ccc(NC(=O)c3ccno3)cc2)n1` [Example 5v, N-[4-[4-(methylsulfonylmethyl)-6-morpholin-4-yl-pyrimidin-2-yl]phenyl]-1,2-oxazole-5-carboxamide], the concentration for half-maximal inhibition (IC50) was 36.9 nM.
Regarding `CS(=O)(=O)Cc1cc(N2CCOCC2)nc(-c2ccc(NC(=O)c3csnn3)cc2)n1` [Example 5as, N-[4-[4-(methylsulfonylmethyl)-6-morpholin-4-yl-pyrimidin-2-yl]phenyl]thiadiazole-4-carboxamide], the IC50 came out at 360 nM.
As for `CS(=O)(=O)Cc1cc(N2CCOCC2)nc(-c2ccc(NC(=O)C3CC3)cc2)n1` [Example 5n, N-[4-[4-(methylsulfonylmethyl)-6-morpholin-4-yl-pyrimidin-2-yl]phenyl] cyclopropanecarboxamide], the concentration for half-maximal inhibition (IC50) turned out to be 614 nM.
For `CS(=O)(=O)Cc1cc(N2CCOCC2)nc(-c2ccc(NC(=O)c3cc[nH]n3)cc2)n1` [Example 5ae, N-[4-[4-(methylsulfonylmethyl)-6-morpholin-4-yl-pyrimidin-2-yl]phenyl]-1H-pyrazole-3-carboxamide], the half-inhibitory concentration (IC50) turned out to be 1810 nM.
`C[C@H]1COCCN1c1cc(CS(C)(=O)=O)nc(-c2ccc(N(C)C(=O)c3ccno3)cc2)n1` [Example 7, N-Methyl-N-[4-[4-[(3S)-3-methylmorpholin-4-yl]-6-(methylsulfonylmethyl)pyrimidin-2-yl]phenyl]-1,2-oxazole-5-carboxamide]: the IC50 was 240 nM.
In the case of `CC(=O)Nc1ccc(-c2nc(CS(C)(=O)=O)cc(N3CCOCC3)n2)cc1` [Example 4, N-[4-[4-(Methylsulfonylmethyl)-6-morpholin-4-yl-pyrimidin-2-yl]phenyl]acetamide], the IC50 was 930 nM.
As for `CC(C)C(=O)Nc1ccc(-c2nc(CS(C)(=O)=O)cc(N3CCOCC3)n2)cc1` [Example 5g, 2-methyl-N-[4-[4-(methylsulfonylmethyl)-6-morpholin-4-yl-pyrimidin-2-yl]phenyl]propanamide], the 50% inhibitory concentration (IC50) was 3670 nM.
Turning to `CS(=O)(=O)Cc1cc(N2CCOCC2)nc(-c2ccc(NC(=O)CC#N)cc2)n1` [Example 5o, 2-cyano-N-[4-[4-(methylsulfonylmethyl)-6-morpholin-4-yl-pyrimidin-2-yl]phenyl]acetamide], the IC50 turned out to be 1850 nM.
For `CS(=O)(=O)Cc1cc(N2CCOCC2)nc(-c2ccc(NC(=O)c3ccco3)cc2)n1` [Example 5i, N-[4-[4-(methylsulfonylmethyl)-6-morpholin-4-yl-pyrimidin-2-yl]phenyl]furan-2-carboxamide], the half-maximal inhibitory concentration (IC50) amounted to 1420 nM.
As for `CS(=O)(=O)Cc1cc(N2CCOCC2)nc(-c2ccc(NC(=O)CCC#N)cc2)n1` [Example 5au, 3-cyano-N-[4-[4-(methylsulfonylmethyl)-6-morpholin-4-yl-pyrimidin-2-yl]phenyl]propanamide], the IC50 is 165 nM.
As for `CS(=O)(=O)Cc1cc(N2CCOCC2)nc(-c2ccc(NC(=O)C(F)F)cc2)n1` [Example 5ar, 2,2-difluoro-N-[4-[4-(methylsulfonylmethyl)-6-morpholin-4-yl-pyrimidin-2-yl]phenyl]acetamide], the figure is 1070 nM; as for `CC(=O)Nc1ccc(-c2nc(CS(C)(=O)=O)cc(N3CCOCC3)n2)cc1CO` [Example 1, N-[2-(Hydroxymethyl)-4-[4-(methylsulfonylmethyl)-6-morpholin-4-yl-pyrimidin-2-yl]phenyl]acetamide], 164 nM; as for `Cc1ccc(C(=O)Nc2ccc(-c3nc(CS(C)(=O)=O)cc(N4CCOCC4)n3)cc2)cn1` [Example 5w, 6-methyl-N-[4-[4-(methylsulfonylmethyl)-6-morpholin-4-yl-pyrimidin-2-yl]phenyl]pyridine-3-carboxamide], 8090 nM.
As for `CS(=O)(=O)Cc1cc(N2CCOCC2)nc(-c2ccc(NC(=O)C3CCC3)cc2)n1` [Example 5, N-[4-[4-(Methylsulfonylmethyl)-6-morpholin-4-yl-pyrimidin-2-yl]phenyl]cyclobutanecarboxamide], the half-maximal inhibitory concentration (IC50) is 1170 nM.
On to `Cc1ccc(C(=O)Nc2ccc(-c3nc(CS(C)(=O)=O)cc(N4CCOCC4)n3)cc2)n1C` [Example 5z, 1,5-dimethyl-N-[4-[4-(methylsulfonylmethyl)-6-morpholin-4-yl-pyrimidin-2-yl]phenyl]pyrrole-2-carboxamide], for which the IC50 was 9050 nM.
For `CCCC(=O)Nc1ccc(-c2nc(CS(C)(=O)=O)cc(N3CCOCC3)n2)cc1` [Example 5b, N-[4-[4-(methylsulfonylmethyl)-6-morpholin-4-yl-pyrimidin-2-yl]phenyl]butanamide], the IC50 was found to be 669 nM.
Take `CS(=O)(=O)Cc1cc(N2CCOCC2)nc(-c2ccc(NC(=O)Cc3ccco3)cc2)n1` [Example 5ai, 2-(2-furyl)-N-[4-[4-(methylsulfonylmethyl)-6-morpholin-4-yl-pyrimidin-2-yl]phenyl]acetamide]: the half-maximal inhibitory concentration (IC50) was found to be 1640 nM.
Take `CS(=O)(=O)Cc1cc(N2CCOCC2)nc(-c2ccc(NC(=O)C3CCOC3)cc2)n1` (stereo not drawn) [Example 5u, N-[4-[4-(methylsulfonylmethyl)-6-morpholin-4-yl-pyrimidin-2-yl]phenyl]oxolane-3-carboxamide]: the IC50 worked out at 4840 nM.
